Results on 5 molecules are retold here after patent US20130012466A1 (priority 2006, published 2013).

“Also recorded” adds a separate entry of the source. Where two headings read alike, the source gives them in different places. Bounds are passed on as bounds.

Data set [1] concerns tubulin. The data set is described as follows: In vitro tubulin polymerization assay (fluorescence-based). The class given is biochemical. Conditions: for effect on tubulin polymerization / microtubules: tested in duplicate on at least two days. Also noted: key to tubulin polymeriz.: ‘D’ designates destabilizer; ‘S’ designates stabilizer. The protocol: In vitro tubulin polymerization assays were performed using a fluorescence-based assay (Cytoskeleton, Inc., Denver, Colo.). […] Aliquots (5 μL) of each compound or control were added to a 96-well black half area plate (Corning Costar, Inc.) pre-warmed to 37° C. Cold tubulin reaction mix (50 μL 1× Buffer—80 mM piperazine-N,N′-bis[2-ethanesulfonic acid]sequisodium salt; 2.0 mM magnesium chloride; 0.5 mM ethylene glycol-bis[β-amino-ethyl ether) N,N,N′,N′-tetra-acetic acid, pH 6.9, 10 μM fluorescent reporter; 20% tubulin glycerol buffer—80 mM piperazine-N,N′-bis[2-ethanesulfonic acid] sequisodium salt; 2.0 mM magnesium chloride; 0.5 mM ethylene glycol-bis(β-amino-ethyl ether) N,N,N′,N′-tetra-acetic acid, 60% v/v glycerol, pH 6.9, 1 mM GTP; and 2 mg mL^−1 tubulin stock) was added to each of the compounds. […] Polymerization curves were generated in Excel after background correction and the effects of test compounds were compared to controls.
Library members that accelerated the rate of tubulin polymerization were deemed microtubule stabilizers, whereas compounds that decelerated the rate of tubulin polymerization were deemed microtubule de-stabilizers.

The test system of data set [2] is A549. Nature of the data set: Cytotoxicity assay (cell titer-glo and calcein AM), A549. As to conditions: A549, % error in parentheses.
Data set [3] deals with A549 cells. Nature of the data set: Drug combination study with paclitaxel (Chou-Talalay combination index).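 As to all read-outs here: combination indexes averaged only over points where fraction affected exceeded 0.2, with each synergy experiment repeated at least three times.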 Conditions: for synergy (paclitaxel): combination index class, combination with paclitaxel, Chou-Talalay method; for plus paclitaxel, mean CI / plus paclitaxel, median CI: combination index, paclitaxel held at IC10, A549 cells; for interaction with paclitaxel/taxol: drug combination, A549 cells, Chou-Talalay.
Protocol: (§1) Ten thousand A549 cells per well were plated in triplicate in 96 well black tissue culture treated plates. Cells were incubated for one hour at 37° C. to allow cells to attach.
(§2) All synergy experiment results were replicated at least three times and the overall effects analyzed by averaging all combination indexes generated if the fraction affected was greater than 0.2.

Data set [4] deals with SF-268. Nature of the data set: Cytotoxicity assay (cell titer-glo and calcein AM), SF-268. As to conditions: SF-268, % error in parentheses.
Data set [5] has as its system Hep3B. The data set is described as follows: Cytotoxicity assay (cell titer-glo and calcein AM), Hep3B. Conditions: Hep 3B, % error in parentheses.
Data set [6] concerns A549 cells. The data set is described as follows: Drug combination study with colchicine (Chou-Talalay combination index). Conditions: for plus colchicine, mean CI / plus colchicine, median CI: combination index, colchicine held at IC10, A549 cells; for interaction with colchicine: drug combination, A549 cells, Chou-Talalay.
Protocol: as §1, §2
Data set [7] relates to NCI-H460. Nature of the data set: Cytotoxicity assay (cell titer-glo and calcein AM), NCI-H460. As to conditions: NCI-H460, % error in parentheses.
The test system of data set [8] is Du145. Nature of the data set: Cytotoxicity assay (cell titer-glo and calcein AM), Du145. Conditions: Du145, % error in parentheses.
Data set [9] has as its system MCF7. The data set is described as follows: Cytotoxicity assay (cell titer-glo and calcein AM), MCF7.
In data set [10] the test system is ADR-RES. Nature of the data set: Cytotoxicity assay (cell titer-glo and calcein AM), ADR-RES. As to conditions: NCI/ADR RES, % error in parentheses.
Data set [11] relates to mouse mammary normal epithelial control cell line. The data set is described as follows: Cytotoxicity assay, normal control cell line.
The subject of data set [12] is SK-OV-3. Nature of the data set: Cytotoxicity assay (cell titer-glo and calcein AM), SK-OV-3.
Data set [13] deals with nine human cancer cell lines and one normal mouse control cell line. Nature of the data set: Cytotoxicity screen across the whole cell line panel. The class given is cell-based.
In data set [14] the test system is HCT-116. Nature of the data set: Cytotoxicity assay (cell titer-glo and calcein AM), HCT-116. Conditions: HCT-116, % error in parentheses.
Data set [15] relates to HCT-116.
[16] abbreviates: read-out: Cytotoxicity IC50, A549, CTG, CTG (cell titer-glo) readout.
The mark [17] stands for this setting: read-out: Cytotoxicity IC50, A549, calcein, calcein AM readout.
[18] abbreviates: read-out: Cytotoxicity IC50, SF-268, CTG, CTG (cell titer-glo) readout.
Where [19] appears, read: read-out: Cytotoxicity IC50, SF-268, calcein, calcein AM readout.
Where [20] appears, read: read-out: Cytotoxicity IC50, Hep 3B, CTG, CTG (cell titer-glo) readout.
Setting [21] is: read-out: Cytotoxicity IC50, Hep 3B, calcein, calcein AM readout.
The mark [22] stands for this setting: read-out: Cytotoxicity IC50, NCI-H460, CTG, CTG (cell titer-glo) readout.
The mark [23] stands for this setting: read-out: Cytotoxicity IC50, NCI-H460, calcein, calcein AM readout.
The mark [24] stands for this setting: read-out: Cytotoxicity IC50, Du145, CTG, CTG (cell titer-glo) readout.
Setting [25] is: read-out: Cytotoxicity IC50, Du145, calcein, calcein AM readout.
[26] abbreviates: read-out: Cytotoxicity IC50, MCF7, CTG, CTG (cell titer-glo) readout, % error in parentheses.
The mark [27] stands for this setting: read-out: Cytotoxicity IC50, MCF7, calcein, calcein AM readout, % error in parentheses.
[28] abbreviates: read-out: Cytotoxicity IC50, NCI/ADR RES, CTG, CTG (cell titer-glo) readout.
Setting [29] is: read-out: Cytotoxicity IC50, NCI/ADR RES, calcein, calcein AM readout.
Where [30] appears, read: read-out: Cytotoxicity IC50, NmuMG, CTG, CTG (cell titer-glo) readout, % error in parentheses.
Setting [31] is: read-out: Cytotoxicity IC50, NmuMG, calcein, calcein AM readout, % error in parentheses.
Where [32] appears, read: read-out: Cytotoxicity IC50, SK-OV-3, CTG, SK-OV-3, CTG (cell titer-glo) readout, % error in parentheses.
The mark [33] stands for this setting: read-out: Cytotoxicity IC50, SK-OV-3, calcein, SK-OV-3, calcein AM readout, % error in parentheses.

Turning to 2-deoxy-D-galactoside [Col6], the tubulin polymeriz. result in data set [1] is “D”. Besides, in data set [1], the “effect on tubulin polymerization / microtubules” value is reported as “destabilizing; also recorded: destabilized microtubules”. Moreover, the IC50 was 782 nM in data set [2] (setting [16]); 942 nM in data set [2] (setting [17]); 632 nM in data set [4] (setting [18]); 691 nM in data set [4] (setting [19]); 817 nM in [5] (setting [20]); 1120 nM in data set [5] (setting [21]). For the same molecule, the IC50 in [7] (setting [22]) is 745 nM; in data set [7] (setting [23]) it was 948 nM; in data set [8] (setting [24]) it was 892 nM; in data set [8] (setting [25]), 958 nM; in data set [9] (setting [26]) it was 665 nM; in [9] (setting [27]), 2220 nM. Also, the IC50 in data set [10] (setting [28]) was 877 nM; in [10] (setting [29]), 887 nM; in data set [11] (setting [30]), 3260 nM; in data set [11] (setting [31]), 4170 nM; in [12] (setting [32]), 388 nM; in data set [12] (setting [33]), 381 nM. Further, the IC50 in data set [12] (read-out: IC50 in SK-OV-3 cells) was 381 nM; in data set [13] (all cell lines other than SK-OV-3, range printed with mixed units nM-μM, read-out: potencies (IC50) in all other cell lines) it was 691 to 1120 nM. For the same molecule, the “synergy (paclitaxel)” value in [3] is listed as “+ (slight synergism, Cl 0.85-0.9)”. Besides, in data set [3], the “plus paclitaxel, mean CI” value turned out to be 0.88. Further, the “plus paclitaxel, median CI” value in data set [3] is reported as 0.52. In addition, in data set [3], the “interaction with paclitaxel/taxol” value is recorded as “synergy”. For the same molecule, the “plus colchicine, mean CI” value in data set [6] amounted to 1.30. Also, in [6], the “plus colchicine, median CI” value worked out at 1.19. In addition, in [6], the “interaction with colchicine” value is listed as “antagonism”.

In the case of 2-deoxy-L-riboside [Col19], the tubulin polymeriz. result in [1] is “S”. Also, the “effect on tubulin polymerization / microtubules” value in [1] was “stabilizing; also recorded: stabilized the microtubules”. Also, the IC50 in [2] (setting [16]) was 376 nM; in data set [2] (setting [17]), 636 nM; in [4] (setting [18]), 284 nM; in data set [4] (setting [19]), 575 nM; in data set [5] (setting [20]) it was 376 nM; in data set [5] (setting [21]), 437 nM. Also, the IC50 is 415 nM in [7] (setting [22]); 191 nM in data set [7] (setting [23]); 369 nM in data set [8] (setting [24]); 262 nM in data set [8] (setting [25]); 916 nM in [9] (setting [26]); 2820 nM in [9] (setting [27]). For the same molecule, the IC50 is 359 nM in data set [10] (setting [28]); 315 nM in data set [10] (setting [29]); 2910 nM in [11] (setting [30]); 2850 nM in data set [11] (setting [31]); 240 nM in data set [12] (setting [32]); 538 nM in [12] (setting [33]). Further, the “synergy (paclitaxel)” value in data set [3] is on record as “— (moderate antagonism, Cl 1.2-1.45)”. Moreover, the “plus paclitaxel, mean CI” value in data set [3] is 43.20. For the same molecule, in [3], the “plus paclitaxel, median CI” value is on record as 13.40. The “interaction with paclitaxel/taxol” value in data set [3] is listed as “antagonism”. Moreover, in data set [6], the “plus colchicine, mean CI” value is 0.54. In data set [6], the “plus colchicine, median CI” value was 0.50. Further, the “interaction with colchicine” value in data set [6] was “synergism”. Moreover, in [13] (versus parent colchicine), the “reduction in potency relative to (1)” value is listed as roughly 10 fold.

Regarding `COc1cc2c(c(OC)c1OC)-c1ccc(OC)c(=O)cc1C(NC(=O)CN(OC)C1CC(O)C(O)C(C)O1)CC2` [Col65, D-Digitoxoside], the tubulin polymeriz. entry in data set [1] is listed as “no effect”. Besides, the “effect on tubulin polymerization / microtubules” value in data set [1] is listed as “no apparent effect”. Moreover, the IC50 in data set [2] (setting [16]) was 1490 nM; in data set [2] (setting [17]) it was 2300 nM; in [4] (setting [18]), 800 nM; in data set [4] (setting [19]), 665 nM; in data set [5] (setting [20]), 1700 nM; in [5] (setting [21]), 1880 nM. The IC50 in data set [7] (setting [22]) was 862 nM; in data set [7] (setting [23]) it was 744 nM; in [8] (setting [24]) it was 850 nM; in data set [8] (setting [25]), 939 nM; in [14] (read-out: Cytotoxicity IC50, HCT-116, CTG, CTG (cell titer-glo) readout) it was 918 nM; in data set [14] (read-out: Cytotoxicity IC50, HCT-116, calcein, calcein AM readout), 897 nM. Besides, the IC50 in data set [9] (setting [26]) is 946 nM; in [9] (setting [27]), 648 nM; in data set [10] (setting [28]) it was 893 nM; in data set [10] (setting [29]), 694 nM; in data set [11] (setting [30]), 7750 nM; in [11] (setting [31]), 3320 nM. Also, the IC50 is 634 nM in [12] (setting [32]) and 1030 nM in data set [12] (setting [33]).

For `COc1cc2c(c(OC)c1OC)-c1ccc(OC)c(=O)cc1[C@@H](NC(C)=O)CC2` [colchin], the IC50 is 153 nM in data set [15], 67 nM in data set [4] (setting [18]), 169 nM in data set [8] (setting [24]) and 18 nM in data set [10] (setting [28]).

Take D-glucorono-6,3-lactonide [Col45]: the tubulin polymeriz. entry in [1] is “D”. In addition, the “effect on tubulin polymerization / microtubules” value in [1] is on record as “destabilizing; also recorded: destabilized microtubules”. The IC50 in data set [2] (setting [16]) was 1100 nM; in data set [2] (setting [17]) it was 1060 nM; in data set [4] (setting [18]) it was 398 nM; in data set [4] (setting [19]), 462 nM; in data set [5] (setting [20]) it was 793 nM; in data set [5] (setting [21]) it was 962 nM. Further, the IC50 in data set [7] (setting [22]) was 775 nM; in [7] (setting [23]), 1020 nM; in data set [8] (setting [24]), 1140 nM; in data set [8] (setting [25]) it was 939 nM; in [9] (setting [26]) it was 760 nM; in data set [9] (setting [27]), 679 nM. The IC50 in data set [10] (setting [28]) is 1140 nM; in data set [10] (setting [29]) it was 403 nM; in [11] (setting [30]), 1460 nM; in [11] (setting [31]), greater than 10000 nM; in [12] (setting [32]), 836 nM; in data set [12] (setting [33]), 887 nM. Further, the IC50 in data set [13] (cell lines other than ADR-Res, SF-268 and HCT-116, read-out: potencies (IC50) in all other cell lines examined) was greater than 900 nM. Also, in data set [3], the “synergy (paclitaxel)” value is recorded as “++++ (strong synergism, Cl 0.1-0.3)”. Further, in data set [3], the “plus paclitaxel, mean CI” value was determined as 0.12. Further, the “plus paclitaxel, median CI” value in [3] is reported as 0.07. The “interaction with paclitaxel/taxol” value in data set [3] is recorded as “strong synergism”. The “plus colchicine, mean CI” value in data set [6] turned out to be 107.40. Besides, in data set [6], the “plus colchicine, median CI” value came out at 102.90. For the same molecule, in data set [6], the “interaction with colchicine” value is listed as “strong antagonism”.
